Some test systems named below: BT-549; CAKI-1; DU-145; HCT-116; HCT-15; KM12; M14; MDA-N; NCI-H23; NCI/ADR-RES; OVCAR-3; OVCAR-8; SF-295; SK-MEL-5; SNB-19; SW-620; UACC-257; RPMI-8226; RXF 393.
What all share (assay): inhibition of tumour cell growth, NCI panel, 48 h

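Step 1: Grow cells in 96-well plates. Step 2: Expose to compound for 48 hours at 5 concentrations. Step 3: Interpolate endpoints linearly; if unreached, use highest concentration. GI50: concentration for 50% inhibition of growth.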 Activity calls are given as the source filed them. No stated cut-off is given here; in the data, active = GI50 up to about 1.1 µM and inactive = higher. Where a SMILES comes first, the peptide text is derived from it. The star is where a group is joined. Cbz = O=C(OCc1ccccc1)*; Boc = CC(C)(C)OC(=O)*; Bn = c1ccc(C*)cc1 A value given as a limit tells only on which side of the number the result lay.

For `Cc1ccc(Cc2n[nH]c(=O)n2N2C(=O)c3ccccc3C2=O)cc1`, the GI50 in the test with BT-549 is > 100 µM (inactive); in the test with CAKI-1, > 100 µM (inactive); in the test with DU-145, > 100 µM (inactive); in the test with HCT-116 it was > 100 µM (inactive); in the test with HCT-15, more than 100 µM; in the test on KM12, > 100 µM (inactive). The GI50 in the test with M14, in the test with MDA-N, in the test on NCI-H23, in the test on NCI/ADR-RES, in the test on OVCAR-3 and in the test on OVCAR-8 was > 100 µM (inactive) in each case. In addition, the GI50 in the test on SF-295, with SK-MEL-5, in the test with SNB-19, with SW-620 and in the test with UACC-257 was > 100 µM (inactive) each time.
As to `COC(=O)/C=C/c1ccc(OP(=O)(O)O)c(OC)c1`, the GI50 in the test with BT-549 is > 100 µM (inactive); in the test on CAKI-1, > 100 µM (inactive); in the test with DU-145 it was > 100 µM (inactive); in the test with HCT-116, > 100 µM (inactive); in the test with HCT-15, more than 100 µM; in the test on KM12, > 100 µM (inactive). The GI50 with M14, with MDA-N, with NCI-H23, in the test with OVCAR-3, with OVCAR-8 and in the test with RPMI-8226 was > 100 µM (inactive) each time. Also, the GI50 in the test on RXF 393, with SF-295, with SK-MEL-5, in the test with SNB-19, in the test on SW-620 and with UACC-257 was > 100 µM (inactive) each time.
As for `O=C(CCCC(=O)N1CC(CCl)c2ccc([N+](=O)[O-])cc21)N1CC(CCl)c2ccc([N+](=O)[O-])cc21` (stereo unspecified), the GI50 in the test on BT-549 was > 100 µM (inactive); in the test with CAKI-1, > 100 µM (inactive); with DU-145, 81.3 µM (inactive); with HCT-116, > 100 µM (inactive); in the test on HCT-15 it was more than 100 µM; in the test on M14, > 100 µM (inactive). The GI50 with MDA-N was > 100 µM (inactive); in the test with NCI-H23, > 100 µM (inactive); in the test with OVCAR-3, > 100 µM (inactive); in the test with RPMI-8226, 43.7 µM (inactive); in the test with RXF 393, > 100 µM (inactive); with SF-295, > 100 µM (inactive). Moreover, the GI50 in the test on SK-MEL-5 was 97.9 µM (inactive); with SNB-19 it was > 100 µM (inactive); in the test with SW-620, > 100 µM (inactive); in the test with UACC-257 it was > 100 µM (inactive).
For `CN(C)c1ccc(-c2c(C#N)c(-c3ccccc3)n(NS(=O)(=O)c3ccccc3)c(=O)c2C#N)cc1`, the GI50 in the test with BT-549 was 56.9 µM (inactive); in the test with CAKI-1 it was 45.7 µM (inactive); in the test on HCT-116, 34.1 µM (inactive); in the test on HCT-15 it was 77.3 µM; in the test with KM12, 65.6 µM (inactive); with M14, 47.4 µM (inactive). The GI50 with MDA-N was 68.1 µM (inactive); with NCI/ADR-RES, 57.3 µM (inactive); in the test with OVCAR-8 it was 31.4 µM (inactive); with RPMI-8226, 21.3 µM (inactive); with RXF 393 it was 44 µM (inactive); in the test with SF-295, 41.7 µM (inactive). The GI50 in the test on SK-MEL-5 is 20.4 µM (inactive); in the test with SNB-19, 24.8 µM (inactive); in the test with SW-620 it was 43.3 µM (inactive); in the test with UACC-257, > 100 µM (inactive).
Regarding `Nc1ncnc2c1ncn2[C@@H]1O[C@H](COC(c2ccccc2)(c2ccccc2)c2ccccc2)[C@@H](OC(=S)Oc2ccccc2)[C@@H]1F`, the GI50 in the test with BT-549 is 4.95 µM (inactive); with CAKI-1, 9.73 µM (inactive); in the test with DU-145, 15.1 µM (inactive); in the test on HCT-116 it was 3.81 µM (inactive); with HCT-15 it was 3.37 µM; in the test on KM12, 4.72 µM (inactive). For the same compound, the GI50 with M14 is 5.53 µM (inactive); in the test on NCI-H23 it was 3.94 µM (inactive); with NCI/ADR-RES, 4.16 µM (inactive); in the test with OVCAR-3 it was 4.55 µM (inactive); in the test on OVCAR-8, 3.37 µM (inactive); in the test with RPMI-8226, 3.49 µM (inactive). Further, the GI50 in the test on RXF 393 was 2.82 µM (inactive); in the test on SF-295, 7.98 µM (inactive); with SK-MEL-5, 4.89 µM (inactive); in the test on SNB-19 it was 11.5 µM (inactive); with SW-620, 4.47 µM (inactive); in the test on UACC-257, 14.6 µM (inactive).
With `O/N=C1/C2CC3CC1(c1ccccc1)CC(/C3=N/O)/C2=N\O` (stereo unspecified), the GI50 in the test on BT-549 was > 100 µM (inactive); with CAKI-1 it was > 100 µM (inactive); in the test with DU-145, > 100 µM (inactive); in the test on HCT-116, > 100 µM (inactive); in the test with HCT-15, more than 100 µM; with KM12 it was > 100 µM (inactive). The GI50 with M14, with MDA-N, in the test with NCI-H23, in the test with OVCAR-3, in the test on OVCAR-8 and with RPMI-8226 was > 100 µM (inactive) each time. The GI50 in the test on RXF 393, in the test with SF-295, in the test with SK-MEL-5, in the test with SNB-19, in the test on SW-620 and with UACC-257 was > 100 µM (inactive) in each case.
With `CC(/C=C/c1ccccc1)=N\NC(=S)N/N=C(C)/C=C/c1ccccc1`, the GI50 was 24.5 µM (inactive) in the test with BT-549; 31.2 µM (inactive) with DU-145; 4.03 µM (inactive) with HCT-116; 12.7 µM in the test with HCT-15; 17.2 µM (inactive) in the test on M14; 25.5 µM (inactive) in the test with MDA-N. Further, the GI50 was 23.7 µM (inactive) in the test on NCI-H23; 16.1 µM (inactive) in the test with NCI/ADR-RES; 5.64 µM (inactive) in the test on OVCAR-3; 17.5 µM (inactive) in the test on OVCAR-8; 13.7 µM (inactive) in the test on RXF 393; 20.7 µM (inactive) in the test with SF-295. The GI50 in the test with SK-MEL-5 is 13.8 µM (inactive); in the test on SNB-19, 23.2 µM (inactive); with SW-620, 15.8 µM (inactive); in the test on UACC-257, 20.8 µM (inactive).
For the compound `CN(C)CCCNC(=O)N/N=C/c1ccc(O)cc1`, the GI50 is > 100 µM (inactive) in the test with BT-549; > 100 µM (inactive) with CAKI-1; > 100 µM (inactive) with DU-145; > 100 µM (inactive) with HCT-116; more than 100 µM in the test with HCT-15; > 100 µM (inactive) with KM12. Also, the GI50 in the test on M14, in the test with MDA-N, in the test with NCI-H23, in the test with NCI/ADR-RES, in the test on OVCAR-3 and in the test on OVCAR-8 was > 100 µM (inactive) each time. Also, the GI50 with SF-295, with SK-MEL-5, with SNB-19, in the test with SW-620 and in the test with UACC-257 was > 100 µM (inactive) throughout.
For the compound `COc1ccc(C(SCCO)(c2ccccc2)c2ccccc2)cc1`, the GI50 with BT-549 was 16.6 µM (inactive); with CAKI-1, 15.5 µM (inactive); in the test on DU-145 it was 13.6 µM (inactive); in the test with HCT-116, 10.9 µM (inactive); in the test with HCT-15, 11.9 µM; in the test on KM12, 14.1 µM (inactive). Moreover, the GI50 in the test on M14 is 7.08 µM (inactive); with MDA-N it was 8.26 µM (inactive); in the test with NCI-H23, 16.9 µM (inactive); in the test with NCI/ADR-RES, 14.8 µM (inactive); with OVCAR-3 it was 14 µM (inactive); in the test on OVCAR-8 it was 17.9 µM (inactive). In addition, the GI50 in the test with RXF 393 is 16.1 µM (inactive); in the test on SF-295, 13.4 µM (inactive); with SK-MEL-5, 10.1 µM (inactive); with SNB-19, 15.7 µM (inactive); in the test with SW-620, 20.6 µM (inactive); with UACC-257, 17.4 µM (inactive).
As to `CCN(CC)c1nc(NC2CCCCC2)c2nc(N(CC)CC)nc(NC3CCCCC3)c2n1`, the GI50 in the test on BT-549 was > 100 µM (inactive); in the test on DU-145 it was > 100 µM (inactive); in the test on HCT-116, > 100 µM (inactive); in the test with HCT-15, more than 100 µM; in the test with KM12, > 100 µM (inactive); with M14 it was > 100 µM (inactive). The GI50 in the test on MDA-N was > 100 µM (inactive); with NCI-H23, > 100 µM (inactive); with NCI/ADR-RES it was > 100 µM (inactive); in the test with OVCAR-3, > 100 µM (inactive); in the test on OVCAR-8, > 100 µM (inactive); in the test on RXF 393 it was 33.3 µM (inactive). The GI50 in the test on SF-295, in the test with SK-MEL-5, with SNB-19 and in the test on SW-620 was > 100 µM (inactive) throughout.
Regarding `Cc1ccc(Cc2nnc(S)[nH]2)cc1`, the GI50 in the test with BT-549 was > 100 µM (inactive); in the test on CAKI-1, > 100 µM (inactive); with DU-145, 70.8 µM (inactive); in the test with HCT-116, 54.8 µM (inactive); in the test on HCT-15, more than 100 µM; in the test with KM12, 79.1 µM (inactive). The GI50 with M14 is > 100 µM (inactive); in the test with MDA-N, > 100 µM (inactive); with NCI-H23 it was 81.3 µM (inactive); with NCI/ADR-RES, 77.6 µM (inactive); with OVCAR-3, > 100 µM (inactive); in the test on OVCAR-8, 79.4 µM (inactive). The GI50 was 52.2 µM (inactive) in the test with SF-295; 74.6 µM (inactive) in the test on SK-MEL-5; > 100 µM (inactive) in the test on SNB-19; > 100 µM (inactive) with SW-620; > 100 µM (inactive) in the test on UACC-257.
As for `CC(C)(C)OC(=O)NC(Cc1ccc(OCc2ccccc2)cc1)C(=O)NC(CCCCNC(=O)OCc1ccccc1)C(=O)O` (stereo unspecified) (Boc-Tyr(Bn)-Lys(Cbz)-OH; configuration not given here), the GI50 with BT-549 is 17.3 µM (inactive); with HCT-116, 31.3 µM (inactive); with HCT-15 it was more than 10 µM; with KM12, 28.2 µM (inactive); in the test on M14, 2.72 µM (inactive); in the test with MDA-N, 40.1 µM (inactive). Moreover, the GI50 was 29.2 µM (inactive) with NCI-H23; 35.3 µM (inactive) in the test with OVCAR-8; 32.7 µM (inactive) with RPMI-8226; 17.8 µM (inactive) in the test on RXF 393; 40.6 µM (inactive) with SK-MEL-5; 27.3 µM (inactive) in the test on SNB-19. The GI50 in the test on SW-620 is 49 µM (inactive); with UACC-257, 87.9 µM (inactive).
